{"source": "patent US7763640B2", "about": "“Substituted oxyguanidines” (Bayer CorpScience AG, priority 2004, dated 2010)", "key": {"[1]": {"test_system": "green peach aphid (Myzus persicae)", "assay": "Myzus persicae test (cabbage leaves, immersion), Example A", "assay_type": "in vivo", "settings": "for Death rate in % after 6d: 1000 ppm, cabbage leaves (Brassica oleracea)", "description": "(§1) To prepare a suitable active compound preparation 1 part by weight of the active compound is mixed with the given amount of solvent and the given amount of emulsifier and the concentrate is diluted to the desired concentration with water.\nCabbage leaves (Brassica oleracea) that are highly infested with the green peach aphid (Myzus persicae) are treated by immersion in the active compound preparation at the desired concentration.\n(§2) After the desired time the death rate in % is determined. Here 100% means that all aphids were killed; 0% means that no aphids were killed."}, "[2]": {"test_system": "green peach aphid (Myzus persicae)", "assay": "Myzus persicae test, soil application, Example C", "assay_type": "in vivo", "settings": "pepper plant", "description": "as §1\nThe active compound preparation is mixed with soil. The concentration given relates to the amount of active compound per unit volume soil (mg/l=ppm). The treated soil is filled into pots and planted with one pepper plant (Capsicum annuum). After one week infection is carried out with the green peach aphid (Myzus persicae).\n(§3) After the desired time the activity in % is determined. Here 100% means that all aphids were killed; 0% means that no aphids were killed."}, "[3]": {"test_system": "cotton aphid (Aphis gossypii)", "assay": "Aphis gossypii test, soil application, Example D", "assay_type": "in vivo", "settings": "cotton plant", "description": "as §1\nThe active compound preparation is mixed with soil. The concentration given relates to the amount of active compound per unit volume soil (mg/l=ppm). The treated soil is filled into pots and planted with one cotton plant (Gossypium hirsutum). After a week infection is carried out with the cotton aphid (Aphis gossypii).\nas §2"}, "[4]": {"test_system": "white fly (Bemisia tabaci, resistant strain)", "assay": "Bemisia tabaci test, resistant strain, Example E", "assay_type": "in vivo", "settings": "cotton leaf sections, immersion", "description": "(§4) To prepare a suitable active compound preparation 1 part by weight of the active compound is mixed with the given amount of solvent and the given amount of emulsifier and the concentrate is diluted to the desired concentration with water containing emulsifier.\nLeaf sections of cotton plants (Gossypium hirsutum) are treated by immersion in the active compound preparation at the desired concentration and after drying of the coating are infected with adults of the white fly (Bemisia tabaci, resistant strain).\nAfter the desired time the death rate in % is determined. Here 100% means that all animals were killed; 0% means that no animals were killed."}, "physchem": {"assay": "physchem", "settings": "pH 2"}, "[5]": {"test_system": "green peach aphid (Myzus persicae)", "assay": "Myzus test, spray treatment, Example F", "assay_type": "in vivo", "settings": "500 g a.i./ha, China cabbage leaf sections", "description": "as §4\nChina cabbage leaf sections (brassica pekinensis) that are infected with all stages of the green peach aphid (Myzus persicae) are sprayed with an active compound preparation at the desired concentration.\nas §3"}, "[6]": {"test_system": "green peach aphid (Myzus persicae)", "assay": "Myzus test, spray treatment, Example B", "assay_type": "in vivo", "settings": "Chinese cabbage leaves", "description": "To prepare a suitable active compound preparation 1 part by weight of the active compound is mixed with the given amount of solvent and the given amount emulsifier and the concentrate is diluted to the desired concentration with water.\nChinese cabbage leaves (Brassica pekinensis) infested with all stages of the green peach aphid (Myzus persicae) were sprayed with an active compound preparation at the desired concentration.\nas §2"}, "[7]": {"test_system": "mixed thrips population (Frankliniella occidentalis)", "assay": "Frankliniella occidentalis test, Example H", "assay_type": "in vivo", "settings": "100 ppm, cotton plants, spraying", "description": "as §4\nCotton plants (Gossypium hirsutum) are treated by spraying with the active compound preparation at the desired concentration and infected with a mixed thrips population (Frankliniella occidentalis).\nAfter the desired time the death rate in % is determined. Here 100% means that all thrips were killed; 0% means that no thrips were killed."}, "[8]": {"test_system": "fall army worm (Spodoptera frugiperda)", "assay": "Spodoptera frugiperda test, Example G", "assay_type": "in vivo", "settings": "500 g a.i./ha, cabbage leaves, immersion, caterpillars", "description": "as §4\nCabbage leaves (Brassica oleracea) are treated by immersion in the active compound preparation at the desired concentration and infected with caterpillars of the fall army worm (Spodoptera frugiperda) while the leaves are still wet.\nAfter the desired time the death rate in % is determined. Here 100% means that all caterpillars were killed; 0% means that no caterpillars were killed."}}}
{"smiles": "CON/C(=N\\[N+](=O)[O-])NCc1ccc(Cl)nc1", "note": "[Example I-1, N-methoxy-N′-(2-chloropyrid-5-ylmethyl)nitroguanidine]", "values": [{"measurement": "Death rate in % after 6d", "setting": "[1]", "value": 98, "unit": "%"}, {"measurement": "Death rate in % after 7d", "setting": "[2]; 8 ppm (mg/l soil)", "value": 100, "unit": "%"}, {"measurement": "Death rate in % after 7d", "setting": "[3]; 8 ppm (mg/l soil)", "value": 100, "unit": "%"}]}
{"smiles": "CON/C(=N/[N+](=O)[O-])NCc1cnc(Cl)s1", "note": "[Example I-5]", "values": [{"measurement": "Death rate in % after 6d", "setting": "[1]", "value": 98, "unit": "%"}, {"measurement": "activity in Myzus persicae test", "setting": "[1]; cabbage leaves", "value": "good activity"}, {"measurement": "Death rate in % after 7d", "setting": "[2]; 0.25 ppm (mg/l soil)", "value": 85, "unit": "%"}, {"measurement": "activity in Myzus persicae test, soil application", "setting": "[2]", "value": "good activity"}, {"measurement": "Death rate in % after 7d", "setting": "[3]; 0.25 ppm (mg/l soil)", "value": 80, "unit": "%"}, {"measurement": "activity in Aphis gossypii test, soil application", "setting": "[3]", "value": "good activity"}, {"measurement": "Death rate in % after 3d", "setting": "[4]; 1000 ppm, after 3 d, adults", "value": 93, "unit": "%"}, {"measurement": "activity in Bemisia tabaci test, resistant strain", "setting": "[4]", "value": "good activity"}, {"measurement": "logP", "setting": "physchem", "value": 1.13}]}
{"smiles": "CON/C(=N\\C#N)NCc1ccc(Cl)nc1", "values": [{"measurement": "Activity in % after 5d", "setting": "[5]", "value": 100, "unit": "%"}]}
{"smiles": "CCON/C(=N/[N+](=O)[O-])NCc1ccc(Cl)nc1", "note": "[Example I-2]", "values": [{"measurement": "Death rate in % after 4d", "setting": "[6]; 500 ppm, after 4 d", "value": 100, "unit": "%"}, {"measurement": "activity in Myzus test, spray treatment", "setting": "[6]", "value": "good activity"}]}
{"smiles": "CON/C(=N/[N+](=O)[O-])NCc1cnc(Cl)s1", "note": "[drawing 35]", "values": [{"measurement": "Death rate in % after 14d", "setting": "[7]", "value": 90, "unit": "%"}]}
{"smiles": "CON/C(=N\\C#N)NCc1cnc(Cl)s1", "values": [{"measurement": "Death rate in % after 7d", "setting": "[8]", "value": 100, "unit": "%"}]}
{"smiles": "CON/C(=N\\[N+](=O)[O-])N(C)Cc1ccc(Cl)nc1", "values": [{"measurement": "Activity in % after 5d", "setting": "[5]", "value": 100, "unit": "%"}]}
